Measured values taken from patent publication US12582721B2, “Molybdenum-based feed supplement for bees” (UNIVERSITE DE VERSAILLES—SAINT-QUENTIN-EN-YVELINES, priority 2020, dated 2026).
Entries after “also recorded” stand apart in the source; their conditions may differ.

Assays:
bee colonies = experiment: 3rd test in the hives: winter mortality of colonies, California 2019; format: in vivo, bees; conditions: single dose 4 mg per hive, 25-28 Oct. 2019, counted Jan. 7, 2020; 26 of 75 lost; control hives 61.8%
Experimental: A treatment campaign was carried out in the autumn-winter in apiaries located in California, near San Francisco. This region is particularly vulnerable to winter mortality of bee colonies which can reach as high as 80% in some years.
151 hives, distributed over 6 different apiaries in California to the south of San Francisco were selected. The bees were of different types: Wildflower (VSH-Italian), Beeweaver, Carniolan Californian Bee (Pope Canyon), Californian bee Tom and Italian Californian bee (Sam).
The hives were Langstroth 2 body type hives (15 frames compared to 10 for Dadant hives in Europe).
2019 by syringe in the form of a concentrated aqueous solution (8 g/L) in a sugar syrup into the feeding frame. 0.5 mL of this solution was introduced and dispersed in 3.5 liters of sugar syrup at 65% sugar and introduced into the hive. […] The control hives only received sugar syrup.
The surviving colonies were counted on Jan. 7, 2020. A total of 73 colonies out of the initial 151 died, that is an overall mortality of 48.3%.

bees = experiment: Toxicity study on bees (lifespan of caged bees); format: in vivo
Experimental: Fifty newly hatched bees (age=1 day) were placed in a special cage with a wax strip, water and food, and were kept in the laboratory oven at a constant temperature of 33° C. and 50% humidity. […] The consumption of water and food was checked every day. Dead bees were counted and removed. For statistical reasons, the experiments were repeated up to 3 times if necessary.

| SMILES | Winter mortality of colonies (bee colonies) | Survival of caged bees versus control group (bees; 2 mg/L in sucrose solution, p>0.05, χ2=3.36) | Survival of caged bees versus control group (bees; 20 mg/L in sucrose solution, p>0.05, χ2=0.04) |
| --- | --- | --- | --- |
| O.O.O.O.O.O.O=C([O-])CN(CCN(CC(=O)[O-])CC(=O)[O-])CC(=O)[O-].[Li+].[Li+].[O]=[Mo+]12[O][Mo+]1(=[O])[O]2 [Li—Mo2O4-EDTA, Li2[Mo2O4 (EDTA)]·6H2O] | 34.7% |  |  |
| O.O.O.O.O.O=C([O-])CN(CCN(CC(=O)[O-])CC(=O)[O-])CC(=O)[O-].[Na+].[Na+].[O]=[Mo+]12[O][Mo+]1(=[O])[O]2 [Na—Mo2O4-EDTA, Na2[Mo2O4 (EDTA)]·5H2O] |  | no significant difference; also recorded: does not induce bee mortality | no significant difference; also recorded: does not induce bee mortality |
